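Grown in 96-well plates, cells were treated for 48 hours with each compound at five concentrations. Insufficient inhibition: endpoint recorded as highest concentration tested. The concentration for 50% growth inhibition is given as GI50.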 Calls of active or inactive are those of the source. Rule as the data show it: active = GI50 up to about 1.1 µM and inactive = higher.
What was measured:
Test in all cases: growth of human tumour cells (NCI), 48 h
NCI-H522 = test system: NCI-H522
HCC 2998 = test system: HCC 2998
OVCAR-4 = test system: OVCAR-4
RXF 393 = test system: RXF 393
HOP-62 = test system: HOP-62
SF-295 = test system: SF-295
U-251 = test system: U-251
HOP-92 = test system: HOP-92
MOLT-4 = test system: MOLT-4
SNB-19 = test system: SNB-19
IGROV-1 = test system: IGROV-1
HT-29 = test system: HT-29
EKVX = test system: EKVX
SF-268 = test system: SF-268
Malme-3M = test system: Malme-3M
SK-MEL-5 = test system: SK-MEL-5
OVCAR-3 = test system: OVCAR-3
T47D = test system: T47D
NCI/ADR-RES = test system: NCI/ADR-RES

Row | SMILES | GI50 (NCI-H522) | GI50 (HCC 2998) | GI50 (OVCAR-4) | GI50 (RXF 393) | GI50 (HOP-62) | GI50 (SF-295) | GI50 (U-251) | GI50 (HOP-92) | GI50 (MOLT-4) | GI50 (SNB-19) | GI50 (IGROV-1) | GI50 (HT-29) | GI50 (EKVX) | GI50 (SF-268) | GI50 (Malme-3M) | GI50 (SK-MEL-5) | GI50 (OVCAR-3) | GI50 (T47D) | GI50 (NCI/ADR-RES)
1 | CN(C)CCc1ccc(Cl)cc1Cl | > 100 µM (inactive) | > 100 µM (inactive) | > 100 µM (inactive) | > 100 µM (inactive) | > 100 µM (inactive) | > 100 µM (inactive) | > 100 µM (inactive) | 62.2 µM (inactive) | > 100 µM (inactive) | > 100 µM (inactive) | > 100 µM (inactive) | > 100 µM (inactive) | > 100 µM (inactive) | > 100 µM (inactive) | > 100 µM (inactive) | > 100 µM (inactive) |  |  | 
2 | COc1ccc(C(=O)C(c2ccc(OC)cc2)C2C(=O)Oc3ccccc32)cc1 (stereo not given) | > 10 µM (inactive) | > 10 µM (inactive) | 5.98 µM (inactive) | > 10 µM (inactive) | > 10 µM (inactive) | > 10 µM (inactive) | > 10 µM (inactive) | > 10 µM (inactive) | > 10 µM (inactive) | > 10 µM (inactive) | > 10 µM (inactive) | > 10 µM (inactive) | > 10 µM (inactive) | > 10 µM (inactive) | > 10 µM (inactive) | > 10 µM (inactive) | > 10 µM (inactive) |  | 
3 | CCC12CCCNC1c1c(n(C)c3ccccc13)C(C(=O)OC)C2 (stereo not given) | 8.02 µM (inactive) | 67.8 µM (inactive) |  | 36.5 µM (inactive) | 93.3 µM (inactive) | 50.4 µM (inactive) | 61.7 µM (inactive) | 16.3 µM (inactive) | 68.7 µM (inactive) | 95.5 µM (inactive) | 61.4 µM (inactive) | 38.1 µM (inactive) | 79.3 µM (inactive) | 85.5 µM (inactive) | 80.2 µM (inactive) | 36.6 µM (inactive) | 11.2 µM (inactive) |  | 
4 | COc1cc2c3c(c1OC)-c1ccccc1C(C(O)c1ccccc1)C3N(C)CC2 (stereo not given) | 18.2 µM (inactive) | 17.7 µM (inactive) |  | 12.4 µM (inactive) | 24.3 µM (inactive) | 44.5 µM (inactive) | 30 µM (inactive) | 53.3 µM (inactive) | 24.3 µM (inactive) | 88.5 µM (inactive) | 38.8 µM (inactive) | 24.7 µM (inactive) | 90.4 µM (inactive) | 31.7 µM (inactive) | 19.6 µM (inactive) | 14.4 µM (inactive) | 34.8 µM (inactive) |  | 
5 | COc1ccc2c(c1)[n+]([O-])c(C(=O)C/C(=N\NC(=O)C[N+](C)(C)C)C(=O)Nc1cc(Cl)ccc1Cl)c(C)[n+]2[O-] | > 100 µM (inactive) | > 100 µM (inactive) | > 100 µM (inactive) | > 100 µM (inactive) | > 100 µM (inactive) | > 100 µM (inactive) | > 100 µM (inactive) | > 100 µM (inactive) | > 100 µM (inactive) | > 100 µM (inactive) | > 100 µM (inactive) | > 100 µM (inactive) | 0.0891 µM (active) | > 100 µM (inactive) | > 100 µM (inactive) | > 100 µM (inactive) | > 100 µM (inactive) |  | 
6 | O=C(Cc1ccc([N+](=O)[O-])c([N+](=O)[O-])c1CC(=O)C(=O)Nc1cc(Cl)ccc1Cl)C(=O)Nc1cc(Cl)ccc1Cl |  | > 100 µM (inactive) | > 100 µM (inactive) | 30.8 µM (inactive) | > 100 µM (inactive) | > 100 µM (inactive) | 24.2 µM (inactive) | > 100 µM (inactive) | 30 µM (inactive) | > 100 µM (inactive) | > 100 µM (inactive) | > 100 µM (inactive) | > 100 µM (inactive) | > 100 µM (inactive) | > 100 µM (inactive) | > 100 µM (inactive) | > 100 µM (inactive) |  | 
7 | Cc1cc(S(=O)(=O)NC2=NNC(C)CN2)c(S)cc1Cl (stereo not given) | 22.3 µM (inactive) | 37.3 µM (inactive) | 44.1 µM (inactive) | 50.9 µM (inactive) | 48.8 µM (inactive) | 46.3 µM (inactive) | 39.2 µM (inactive) |  | 44.2 µM (inactive) | 60 µM (inactive) | 23.9 µM (inactive) | 62.2 µM (inactive) | 96.6 µM (inactive) | 15.9 µM (inactive) | 16.7 µM (inactive) | 35.1 µM (inactive) | 53.7 µM (inactive) | 37.8 µM (inactive) | 33.4 µM (inactive)
8 | NC(CO)c1ccc(OCc2ccccc2)cc1 (stereo not given) | 42 µM (inactive) | > 100 µM (inactive) | > 92.7 µM (inactive) | > 73.5 µM (inactive) | > 100 µM (inactive) | > 100 µM (inactive) | > 100 µM (inactive) | 27.7 µM (inactive) | 27.5 µM (inactive) | > 63.7 µM (inactive) | > 100 µM (inactive) | > 100 µM (inactive) | 89.3 µM (inactive) | > 100 µM (inactive) | > 100 µM (inactive) | > 100 µM (inactive) | > 100 µM (inactive) |  | 
9 | CSc1ncnc2c1cnn2Cc1cnnn1COCC(O)CO (stereo not given) | 11.1 µM (inactive) | > 100 µM (inactive) | > 100 µM (inactive) |  | > 100 µM (inactive) | > 100 µM (inactive) | > 100 µM (inactive) |  | > 100 µM (inactive) | > 100 µM (inactive) | > 100 µM (inactive) | > 100 µM (inactive) | > 100 µM (inactive) | 13.8 µM (inactive) |  | > 100 µM (inactive) | > 100 µM (inactive) | > 100 µM (inactive) | > 100 µM (inactive)
10 | O=C1NC2C=CN(Cc3ccccc3)C=C2C(=O)N2CCCC12 (stereo not given) | > 100 µM (inactive) | > 100 µM (inactive) | > 100 µM (inactive) | > 100 µM (inactive) | > 100 µM (inactive) | > 100 µM (inactive) | > 100 µM (inactive) | > 100 µM (inactive) | > 100 µM (inactive) | > 100 µM (inactive) | > 100 µM (inactive) | > 100 µM (inactive) | > 100 µM (inactive) | > 100 µM (inactive) | > 100 µM (inactive) | > 100 µM (inactive) | > 100 µM (inactive) |  | 
11 | CS(=O)(=O)c1nc(-c2cc3c(c(S(C)(=O)=O)n2)CCCC3)cc2c1CCCCC2 | 21.1 µM (inactive) |  | > 100 µM (inactive) | 48.6 µM (inactive) | 31.6 µM (inactive) | > 100 µM (inactive) | > 100 µM (inactive) |  |  | > 100 µM (inactive) | 11.2 µM (inactive) | > 100 µM (inactive) | > 100 µM (inactive) | 16.8 µM (inactive) |  | > 100 µM (inactive) | > 100 µM (inactive) |  | > 100 µM (inactive)
12 | COc1cc2cc3c4c(cc(OC)c(OC)c4c2cc1OC)CCN3C(=O)CCC(=O)O | > 100 µM (inactive) | > 100 µM (inactive) | > 100 µM (inactive) | > 100 µM (inactive) | > 100 µM (inactive) | > 100 µM (inactive) | > 100 µM (inactive) | > 100 µM (inactive) | > 100 µM (inactive) | > 100 µM (inactive) | > 100 µM (inactive) | > 100 µM (inactive) | > 100 µM (inactive) | > 100 µM (inactive) | > 100 µM (inactive) | > 100 µM (inactive) | > 100 µM (inactive) |  | 
13 | CCOC(=O)c1ccc(NCc2ccc3nc(OC)c(OC)nc3c2)cc1 | > 100 µM (inactive) | > 100 µM (inactive) | 88.7 µM (inactive) |  | > 100 µM (inactive) | > 100 µM (inactive) | > 100 µM (inactive) | 58.3 µM (inactive) | > 100 µM (inactive) | > 100 µM (inactive) | > 100 µM (inactive) | > 100 µM (inactive) | > 100 µM (inactive) | > 100 µM (inactive) | > 100 µM (inactive) | > 100 µM (inactive) | > 100 µM (inactive) | 57.1 µM (inactive) | > 100 µM (inactive)
14 | COc1ccc(-c2cc(C(=O)Nc3cccc(C(F)(F)F)c3)nc(S)n2)cc1 | > 100 µM (inactive) | > 100 µM (inactive) | > 100 µM (inactive) | > 100 µM (inactive) | > 100 µM (inactive) | > 100 µM (inactive) | > 100 µM (inactive) | > 100 µM (inactive) | > 100 µM (inactive) | > 100 µM (inactive) | > 100 µM (inactive) | > 100 µM (inactive) | > 100 µM (inactive) | > 100 µM (inactive) | > 100 µM (inactive) | > 100 µM (inactive) | > 100 µM (inactive) |  | 
15 | CCOc1ccc2c(c1)[n+]([O-])c(-c1ccccc1Cl)c(N)[n+]2[O-] | 17.4 µM (inactive) |  | > 100 µM (inactive) | > 100 µM (inactive) | > 100 µM (inactive) | > 100 µM (inactive) | > 100 µM (inactive) | > 100 µM (inactive) | 74 µM (inactive) | > 100 µM (inactive) | > 100 µM (inactive) | > 100 µM (inactive) | > 100 µM (inactive) | > 100 µM (inactive) | > 100 µM (inactive) | 90.2 µM (inactive) | > 100 µM (inactive) |  | 
16 | C=C1c2ccccc2N(S(=O)(=O)c2ccc(C)cc2)C12CCCCC2 | 34.8 µM (inactive) | > 100 µM (inactive) | 53.1 µM (inactive) | 45.6 µM (inactive) | > 100 µM (inactive) | 74.5 µM (inactive) | 94.6 µM (inactive) | 4.27 µM (inactive) | 30.4 µM (inactive) | > 100 µM (inactive) | > 100 µM (inactive) | 52.4 µM (inactive) | > 100 µM (inactive) | 63 µM (inactive) | 34.8 µM (inactive) | 30.8 µM (inactive) | 77.6 µM (inactive) |  | 

— ChEMBL document CHEMBL1201862, “PubChem BioAssay data set” (2004)
